Measured values taken from patent US9340545B2, “Quinazolin-4 (3H)—one derivatives used as P13 kinase inhibitors” (Respivert Limited, priority 2011, dated 2016).

System: cigarette smoke-induced cell accumulation in murine BALF
Experiment: Cigarette smoke model
Format: in vivo, A/J mice

Compound	Activity in the cigarette smoke model (0.3-10 mg/kg, p.o.)	Anti-inflammatory effect as monotherapy in the cigarette smoke model (monotherapy, at the dose used for co-administration (FP dosed at 50 μg/mL))
C[C@@H]1C[C@H]2[C@@H]3CCC4=CC(=O)C=C[C@]4(C)[C@@]3(F)[C@@H](O)C[C@]2(C)[C@@]1(O)C(=O)CO [dexamethasone]	inactive	–
CCC(=O)O[C@]1(C(=O)SCF)[C@H](C)C[C@H]2[C@@H]3C[C@H](F)C4=CC(=O)C=C[C@]4(C)[C@@]3(F)[C@@H](O)C[C@@]21C [fluticasone propionate]	–	lacks any significant effect
